In patent publication US20100093773A1, “METHODS OF TREATING CANCER” (Myriad Pharmaceuticals, Inc., priority 2007, published 2010):
Counter-ions that a name gives are not always drawn.

Key:
[1] = system: human ovarian OVCAR-3 carcinoma cells; test: Vascular disruption effects in human tumor xenograft model (tumor histology, hematoxylin and eosin Y); type: in vivo, Crl:Nu/Nu-nuBR mice; details: OVCAR-3 xenograft, 24 hours after dosing; for blood vessels in the necrotic areas / tumor necrosis pattern (central area of the tumors): 10 mg/kg test compound, 100 mg/kg CA4P
Description: (4-Methoxy-phenyl)-methyl-(2-methyl-quinazolin-4-yl)-amine hydrochloride was tested in a human tumor xenograft model to determine its vascular disruption effects. Crl:Nu/Nu-nuBR mice were grown and injected with 1×10^7 human ovarian OVCAR-3 carcinoma cells on the right flank and allowed to grow to various tumor volumes. Mice were then dosed with either vehicle, 100 mg/kg combretastatin A-4 phosphate (CA4P) (obtained from Toronto Research Chemicals, Ontario, Canada) or 10 mg/kg (4-Methoxy-phenyl)-methyl-(2-methyl-quinazolin-4-yl)-amine hydrochloride.
Animals were housed by groups in Positive Individual Ventilation (PIV) cages in flat-bottom cages (Thoren Caging Systems, Hazelton, Pa.) with no more than ten mice per cage. Cages contained autoclaved TEK-Fresh bedding (Harlan, Indianapolis, Ind.), which was changed every seven days. Environmental controls were set to maintain a temperature between 65° F. and 75° F. with a relative humidity of 30-70% in a 12:12 hour light:dark cycle. Animals were feed gamma-irradiated 2019 rodent chow ad libitum (Harlan, Indianapolis, Ind.). Tap water was sterilized using manufacture recommended conditions and supplied via an automated watering system ad libitum (Edstrom Industries, Waterford, Wis.). Twenty four hours after dosing, mice were sacrificed and tumors and hearts removed, fixed, sectioned and stained with hematoxylin and eosin Y (each obtained from Richard Allen Scientific, Kalamazoo, Mich.).

[2] = Phase I clinical trial, weekly intravenous administration, subjects with refractory solid tumors (safety, tolerability); type: in vivo, human; details: i.v. weekly x3 per 4 week cycle, 0.3-3.3 mg/m^2
Description: An open-label, dose-escalating, multiple-dose study to define the safety, tolerability and pharmacokinetics of weekly intravenous administration of (4-Methoxy-phenyl)-methyl-(2-methyl-quinazolin-4-yl)-amine hydrochloride was performed. A dosing schedule (each 4 week cycle) was performed for (4-Methoxy-phenyl)-methyl-(2-methyl-quinazolin-4-yl)-amine hydrochloride weekly for 3 weeks with no infusion on the fourth week of each cycle. Subjects with refractory solid tumors were enrolled in cohorts of 3. During Cycle 1, subjects were hospitalized during each infusion of (4-Methoxy-phenyl)-methyl-(2-methyl-quinazolin-4-yl)-amine hydrochloride and remained for observation and safety evaluation for approximately 24 hours following the end of the infusion. All subject had continuous telemetry for 2 hours prior to infusion, for 1-2 hour infusion and for 3 hours after the end of the infusion. Any clinically significant electrocardiographic (ECG) wave form abnormality was recorded and prolongation of the monitoring period extended at the discretion of the principal investigator.
Electrocardiograms were obtained prior to starting the infusion and within 30 minutes of the end of infusion for each infusino of the first cycle. Electrocardiograms on Day 1 were obtained in triplicate 5 minutes apart.
Neurocognitive assessments were made by administration of the Mini-Mental State Examination (MMSE), the Hopkins Verbal Learning and timed Grooved Pegboard tests before administration of the intravenous infusion and approximately 24 hours of the infusion at each weekly administration of the first cycle.
On days 1, 8, and 15 of each cycle, vital signs were obtained prior to the first dose, at 15, 30, and 60 minutes after the initiation of the infusion, and at 0.5, 1, 1.5, 2, and 4 hours after the end of the intravenous infusion. Vital signs at all time points beyond the start of the intravenous infusion included heart rate, blood pressure and respirations. Temperature was measured at the end of the infusion and 4 hours later.
Individual subjects were allowed to continue on repeated weekly ×3 administrations every 28 days with no dose increase provided there was no unacceptable toxicity or disease progression.
Tumor response was evaluated by response evaluation criteria in solid tumors (RECIST) criteria. To prevent sever hypersensitivity reactions due to Cremophor® EL, subjects were premedicated with oral dexamethasone (20 mg) administered approximately 12 and 6 hours before the intervenous infusion with (4-Methoxy-phenyl)-methyl-(2-methyl-quinazolin-4-yl)-amine hydrochloride, diphenhydramine (50 mg) or its equivalent administered intravenously 30-60 minutes before (4-Methoxy-phenyl)-methyl-(2-methyl-quinazolin-4-yl)-amine hydrochloride, and cimetidine (300 mg) or ranitidine (50 mg) administered intravenously 30-60 minutes before (4-Methoxy-phenyl)-methyl-(2-methyl-quinazolin-4-yl)-amine hydrochloride.

COc1ccc(/C=C\c2cc(OC)c(OC)c(OC)c2)cc1OP(=O)(O)O [CA4P, combretastatin A-4 phosphate, reference compound]
blood vessels in the necrotic areas [1]: consistently congested with perivascular hemorrhage
tumor necrosis pattern (central area of the tumors) [1]: extensive necrosis with a rim of viable tumor tissue around the periphery

COc1ccc(N(C)c2nc(C)nc3ccccc23)cc1 [(4-Methoxy-phenyl)-methyl-(2-methyl-quinazolin-4-yl)-amine hydrochloride]
blood vessels in the necrotic areas [1]: consistently congested with perivascular hemorrhage
tumor necrosis pattern (central area of the tumors) [1]: extensive necrosis with a rim of viable tumor tissue around the periphery
degree of necrosis compared with CA4P treated animals ([1]; 10 mg/kg vs 100 mg/kg CA4P): greater
bradycardia [2]: occasional episodes of bradycardia
dose limiting toxicity [2]: vascular in nature, manifested by an acute coronary syndrome
intratumor bleeding [2]: incidences of intratumor bleeding
overall safety and tolerability [2]: safe and tolerable
peripheral cytotoxicity [2]: no evidence of cytotoxity peripherally
systolic blood pressure [2]: dose-related increase
effects on cardiac conduction (PR, QRS or QTC) ([2]; ECG): no significant effects
